Results from ChEMBL document CHEMBL1130445, “The synthesis of CD-ring modified 1,25-dihydroxy vitamin D analogues: Six-membered D-ring analogues I” (1997).

What was measured:
HL-60 = assay: Biological evaluation in vitro on HL-60 cell line; type: functional, Homo sapiens; set-up: reference not given here
Keratinocyte = assay: Biological evaluation in vitro on keratinocytes; type: functional; set-up: reference not given here
MG-63 = assay: Biological evaluation in vitro on MG-63 cell line; type: functional, Homo sapiens; set-up: reference not given here
MCF7 = assay: Biological evaluation in vitro on MCF-7 cell line; type: functional, Homo sapiens; set-up: reference not given here
Mus musculus = assay: The in vivo effect was tested in vitamin D-deplete normal NMRI mice by measuring calcium levels in serum.; type: functional; set-up: reference not given here
[1] = biological target: T1, Vitamin D3 receptor (Sus scrofa) (UniProt A3RGC1); assay: Inhibition of 1-alpha,25(OH)2 D3 binding to pig intestinal mucosa Vitamin D3 receptor (VDR); type: tissue-based
T1 sequence (whole entry): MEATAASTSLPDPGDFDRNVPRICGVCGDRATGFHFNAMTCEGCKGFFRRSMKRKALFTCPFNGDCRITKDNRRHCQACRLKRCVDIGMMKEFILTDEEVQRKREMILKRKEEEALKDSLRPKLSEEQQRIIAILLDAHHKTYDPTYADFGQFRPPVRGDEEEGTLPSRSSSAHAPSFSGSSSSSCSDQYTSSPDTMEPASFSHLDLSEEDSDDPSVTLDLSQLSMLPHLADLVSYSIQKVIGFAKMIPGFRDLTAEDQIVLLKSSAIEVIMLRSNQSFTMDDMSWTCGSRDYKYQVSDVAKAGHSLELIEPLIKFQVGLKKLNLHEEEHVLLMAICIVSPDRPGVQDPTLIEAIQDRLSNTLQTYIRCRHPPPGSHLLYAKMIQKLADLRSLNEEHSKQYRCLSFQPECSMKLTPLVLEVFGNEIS

Compound | Biological evaluation (HL-60) | Biological evaluation (Keratinocyte) | Biological evaluation (MG-63) | Biological evaluation (MCF7) | Biological evaluation (Mus musculus) | Relative affinity [1]
C=C1C(=CC=C[C@@H]2CCC[C@H]([C@@H](C)CCCC(C)(C)O)C2(C)C)C[C@@H](O)C[C@@H]1O | 1 | 8 | 1 | 0 | 0.1 | 0.5
C=C1C(=CC=C[C@H]2CCC[C@H]([C@H](C)CCCC(C)(C)O)C2(C)C)C[C@@H](O)C[C@@H]1O | 2 | 30 | 3 | 1 | <0.1 | 1
C=C1C(=CC=C[C@@H]2CCC[C@H]([C@H](C)CCCC(C)(C)O)C2(C)C)C[C@@H](O)C[C@@H]1O | 90 | 300 | 300 | 300 | 4 | 125
C=C1C(=CC=C[C@H]2CCC[C@H]([C@H](C)CCCCC(O)(CC)CC)C2(C)C)C[C@@H](O)C[C@@H]1O | 600 | 1500 | 800 | 3000 | 20 | 60
C=C1C(=CC=C[C@H]2CCC[C@H]([C@@H](C)CCCC(C)(C)O)C2(C)C)C[C@@H](O)C[C@@H]1O | 1 | 8 | 1 | 0 | <0.1 | 0.9
